Test results: PubChem BioAssay AID624129 (Sanford-Burnham Center for Chemical Genomics, 2012)
The source made the active and inactive calls. No rule for the calls is given here.

Experiments:
Experiment in all cases: potency against CXCR6 with APJ panel – cell-based, beta-arrestin, DiscoveRx, uHTS hits, dose response (AID 624129)
[1] = biological target: Apelin receptor (Homo sapiens) (UniProt P35414); details: CXCR6 beta-arrestin (DiscoveRx) antagonist cell assay, APJ
[2] = biological target: Beta-galactosidase (Escherichia coli) (UniProt Q8VNN2); details: CXCR6 beta-arrestin (DiscoveRx) antagonist cell assay, b-galactosidase
Chain of Beta-galactosidase (Escherichia coli) (Q8VNN2 whole entry, looked up): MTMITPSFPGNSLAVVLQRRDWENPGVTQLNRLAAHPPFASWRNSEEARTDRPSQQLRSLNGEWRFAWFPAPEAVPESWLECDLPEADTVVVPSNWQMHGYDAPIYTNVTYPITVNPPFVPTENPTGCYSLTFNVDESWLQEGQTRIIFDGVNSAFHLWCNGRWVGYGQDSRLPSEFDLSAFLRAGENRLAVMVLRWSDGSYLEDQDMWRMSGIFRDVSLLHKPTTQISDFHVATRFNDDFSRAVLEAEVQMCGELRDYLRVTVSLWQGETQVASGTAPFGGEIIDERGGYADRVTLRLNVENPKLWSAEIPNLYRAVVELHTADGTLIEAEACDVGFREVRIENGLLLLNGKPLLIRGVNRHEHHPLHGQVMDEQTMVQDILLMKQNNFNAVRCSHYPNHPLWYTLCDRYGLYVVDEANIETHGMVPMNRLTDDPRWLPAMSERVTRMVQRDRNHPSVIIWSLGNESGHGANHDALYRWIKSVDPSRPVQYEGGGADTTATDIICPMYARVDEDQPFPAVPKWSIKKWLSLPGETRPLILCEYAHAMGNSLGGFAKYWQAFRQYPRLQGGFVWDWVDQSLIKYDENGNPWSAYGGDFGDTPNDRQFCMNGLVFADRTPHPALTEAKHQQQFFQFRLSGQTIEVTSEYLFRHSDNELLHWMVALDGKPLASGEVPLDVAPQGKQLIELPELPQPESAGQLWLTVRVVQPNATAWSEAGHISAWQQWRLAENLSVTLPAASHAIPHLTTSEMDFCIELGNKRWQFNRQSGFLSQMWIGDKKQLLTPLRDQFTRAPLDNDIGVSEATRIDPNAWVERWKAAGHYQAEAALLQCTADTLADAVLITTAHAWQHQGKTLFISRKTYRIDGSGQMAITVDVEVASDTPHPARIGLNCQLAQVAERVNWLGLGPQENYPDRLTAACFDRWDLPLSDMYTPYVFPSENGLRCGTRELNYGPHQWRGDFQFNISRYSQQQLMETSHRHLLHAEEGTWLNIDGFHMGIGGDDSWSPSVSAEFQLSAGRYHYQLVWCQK

[3] = biological target: C-C chemokine receptor type 6 (Homo sapiens) (UniProt P51684); details: CXCR6 beta-arrestin (DiscoveRx) antagonist cell assay
[4] = biological target: C-X-C chemokine receptor type 6 (Homo sapiens) (UniProt O00574); details: CXCR6 beta-arrestin (DiscoveRx) antagonist cell assay; for inhibition: CXCR6, run 1, dose range 2, at 80 µM (top of the series)
Chain of C-X-C chemokine receptor type 6 (Homo sapiens) (O00574 whole entry, looked up): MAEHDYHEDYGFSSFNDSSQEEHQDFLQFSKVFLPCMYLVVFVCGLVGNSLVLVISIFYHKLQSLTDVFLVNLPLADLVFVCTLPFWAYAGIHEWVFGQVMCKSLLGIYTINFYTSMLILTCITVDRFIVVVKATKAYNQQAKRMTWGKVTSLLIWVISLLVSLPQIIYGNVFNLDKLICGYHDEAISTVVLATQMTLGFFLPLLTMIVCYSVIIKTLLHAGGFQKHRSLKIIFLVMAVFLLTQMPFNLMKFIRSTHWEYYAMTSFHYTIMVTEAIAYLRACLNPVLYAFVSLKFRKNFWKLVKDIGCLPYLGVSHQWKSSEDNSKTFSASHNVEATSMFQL

[5] = dose range 1, mean IC50 across replicates
[6] = CCR6, dose range 1, mean IC50 across replicates
[7] = CXCR6, dose range 1, mean IC50 across replicates

Row | SMILES | IC50 ([1]; dose range 1) | IC50 [1, 5] | IC50 ([1]; run 2, dose range 1) | IC50 ([1]; run 3, dose range 1) | IC50 ([2]; dose range 1) | IC50 [2, 5] | IC50 ([3]; CCR6, dose range 1) | IC50 [3, 6] | IC50 ([3]; CCR6, run 2, dose range 1) | IC50 ([4]; CXCR6, dose range 1) | IC50 [4, 7] | IC50 ([4]; CXCR6, run 1, dose range 2) | IC50 ([4]; CXCR6, run 2, dose range 1) | IC50 ([4]; CXCR6, run 2, dose range 2) | inhibition [4]
1 | CS(=O)(=O)c1ccc(C(=O)OCc2nnc(-c3ccccc3)o2)cc1[N+](=O)[O-] | 4.43 µM | 3.86 µM | 3.23 µM | 3.93 µM | > 80 µM (inactive) | > 80 µM | 7.32 µM | 8.49 µM | 9.67 µM | 3.8 µM | 3.17 µM | 3.23 µM | 3.64 µM | 2.03 µM | –
2 | CCn1c(Cl)c(C=O)s/c1=N\S(=O)(=O)c1ccccc1 | 6.85 µM | 5.99 µM | 5.55 µM | 5.57 µM | > 80 µM (inactive) | > 80 µM | 3.16 µM | 3.63 µM | 4.09 µM | 4.78 µM | 4.9 µM | 5.1 µM | 5.14 µM | 4.58 µM | –
3 | C=C(CN(C)C)C(=O)c1ccc(C)cc1C | 51.6 µM | 39.5 µM | 39.9 µM | 27 µM | 48.2 µM | 48.2 µM | 26 µM | 29.1 µM | 32.3 µM | inactive | 45.6 µM | – | 25.5 µM | – | 90.5%
4 | O=C1C=CC2(O[C@H](c3ccccc3)[C@@H](c3ccccc3)O2)[C@H](Sc2ccccc2O)C1 | 1.65 µM | 3.05 µM | 5.03 µM | 2.46 µM | > 80 µM (inactive) | > 80 µM | 2.26 µM | 3.07 µM | 3.87 µM | 8.69 µM | 6.31 µM | – | 3.94 µM | – | 121%
5 | CCCC1CCC(=NNC(=S)NCCc2ccccc2)CC1 (centres undefined) | – | > 80 µM | > 80 µM | > 80 µM | > 80 µM (inactive) | > 80 µM | – | > 80 µM | > 80 µM | > 80 µM (inactive) | > 80 µM | – | > 80 µM | – | -19%
6 | CCc1cc2c(=O)[nH]c(-c3ccccn3)nc2s1 | 1.79 µM | 2.03 µM | 2.16 µM | 2.13 µM | > 80 µM (inactive) | > 80 µM | 1.76 µM | 2.43 µM | 3.1 µM | 2.61 µM | 1.76 µM | 1.4 µM | 1.74 µM | 1.28 µM | –
7 | CC(=O)OCCNc1cc(SCc2ccco2)c2nonc2c1[N+](=O)[O-] | 21.1 µM | 18.8 µM | 17.8 µM | 17.5 µM | > 80 µM (inactive) | > 80 µM | 13.8 µM | 14 µM | 14.2 µM | inactive | 15.4 µM | – | 16.6 µM | – | 74.8%
8 | CC(=O)OC1C2(CC3N4C(=O)C5(CO)SSC4(CC31O)C(=O)N5C)OC(C)C(C)(C)C2=O (centres undefined) | 1.1 µM | 1.22 µM | 0.918 µM | 1.64 µM | > 80 µM (inactive) | > 80 µM | 1.34 µM | 1.35 µM | 1.36 µM | 0.925 µM | 0.724 µM | 0.497 µM | 0.936 µM | 0.54 µM | –
9 | Cc1ccc2c(C)ccc(O)c2n1 | 5.26 µM | 5.92 µM | 6.22 µM | 6.29 µM | > 80 µM (inactive) | > 80 µM | 4.94 µM | 5.41 µM | 5.87 µM | 4.91 µM | 5.07 µM | 4.36 µM | 5.82 µM | 5.2 µM | –
10 | O=C1C=CC(=O)N1c1ccccc1N1C(=O)C=CC1=O | – | > 80 µM | > 80 µM | > 80 µM | > 80 µM (inactive) | > 80 µM | – | > 80 µM | > 80 µM | > 80 µM (inactive) | > 80 µM | – | > 80 µM | – | 42.9%
11 | CC(Oc1ccc(F)cc1)C(=O)Nc1nc(-c2ccccn2)cs1 (centres undefined) | 9.28 µM | 9.34 µM | 8.14 µM | 10.6 µM | > 80 µM (inactive) | > 80 µM | 7.82 µM | 8.7 µM | 9.57 µM | 8.77 µM | 7.74 µM | 5.99 µM | 8.41 µM | 7.81 µM | –
12 | O=C1C(Cc2ccccc2)Nc2ncnc(N3CCN(c4ccccc4)CC3)c2N1Cc1ccc(Br)cc1 (centres undefined) | 1.2 µM | 2.26 µM | 3.32 µM | > 80 µM | > 80 µM (inactive) | > 80 µM | 1.67 µM | 1.55 µM | 1.44 µM | 1.37 µM | 1.23 µM | 1.42 µM | 0.993 µM | 1.13 µM | –
13 | COc1ccc(NC(=O)/C(Cl)=C(/Cl)S(=O)Cc2ccccc2)cn1 (centres undefined) | 10.7 µM | 22.5 µM | 7.69 µM | 49 µM | > 80 µM (inactive) | > 80 µM | 5.44 µM | 5.05 µM | 4.67 µM | 6.13 µM | 6.54 µM | 6.75 µM | 6.11 µM | 7.15 µM | –
14 | C=C(CN(C)C)C(=O)c1ccc(OC2OC(COC(C)=O)C(OC(C)=O)C(OC(C)=O)C2OC(C)=O)cc1 (centres undefined) | 38.4 µM | 38.9 µM | 37.8 µM | 40.5 µM | > 80 µM (inactive) | > 80 µM | 24.5 µM | 23.2 µM | 21.9 µM | inactive | 22.3 µM | – | 20.9 µM | – | 135%
15 | C=C1C(=O)C23C(O)C1CCC2C12CCCC(C)(COC(C)=O)C1C(O)C3(O)OC2 (centres undefined) | 9 µM | 8.77 µM | 7.67 µM | 9.63 µM | > 80 µM (inactive) | > 80 µM | 5.19 µM | 5.59 µM | 6 µM | 6.64 µM | 6.29 µM | 6.49 µM | 6.24 µM | 5.8 µM | –
16 | CCOC(=O)CSc1cccc2cccnc12 | 4.5 µM | 5.48 µM | 6.81 µM | 5.13 µM | > 80 µM (inactive) | > 80 µM | 4.64 µM | 5.27 µM | 5.89 µM | 7.12 µM | 5.86 µM | 3.95 µM | 8.08 µM | 4.32 µM | –
17 | CN(c1ccccc1)S(=O)(=O)c1ccc(NC(=O)c2nc(S(C)(=O)=O)ncc2Cl)cc1 | 7.36 µM | 7.72 µM | 7.88 µM | 7.91 µM | > 80 µM (inactive) | > 80 µM | 6.25 µM | 5.69 µM | 5.13 µM | 6.05 µM | 7.41 µM | 8.06 µM | 6.38 µM | 9.16 µM | –
18 | Cc1ccc(S(=O)(=O)Nc2cccc3cccnc23)cc1 | 16.7 µM | 17.8 µM | 19 µM | 17.5 µM | > 80 µM (inactive) | > 80 µM | 7.97 µM | 8.52 µM | 9.06 µM | 10.3 µM | 8.04 µM | – | 5.75 µM | – | 118%
19 | Cn1c(=O)c([N+](=O)[O-])c(Cl)c2ccccc21 | 16.4 µM | 29.4 µM | 42.5 µM | > 80 µM | > 80 µM (inactive) | > 80 µM | 16.2 µM | 21.7 µM | 27.1 µM | inactive | 22.2 µM | – | > 80 µM | – | 116%
20 | COc1ccc([N+](=O)[O-])c(S(=O)(=O)c2ccccc2)n1 | 21.5 µM | 22.9 µM | > 80 µM | 24.4 µM | inactive | 50.7 µM | 22.6 µM | 19.5 µM | 16.5 µM | inactive | 35.4 µM | – | 24.9 µM | – | 102%
21 | C=CCn1nc([N+](=O)[O-])nc1Sc1cccc2cccnc12 | 75.1 µM | 49.3 µM | 36 µM | 36.8 µM | > 80 µM (inactive) | > 80 µM | 39 µM | 35.3 µM | 31.6 µM | inactive | 59.6 µM | – | > 80 µM | – | 82.2%
22 | Cn1c(O)c(C2=NNC(c3ccc(Cl)cc3)C2)c(=O)n(C)c1=O (centres undefined) | 9.91 µM | 13.1 µM | 20 µM | 9.47 µM | 26.3 µM | 26.3 µM | 11.2 µM | 13.6 µM | 16 µM | inactive | 11.7 µM | 6.31 µM | 17 µM | 8.11 µM | –
